The series in a line: Test Example 3: Determination of oil/water partition coefficient (n-octanol / Sorensen buffer pH 7.0, HPLC). The format is physicochemical. The settings on record: dihydrochloride. The procedure:
A 10-ml portion, of a solution prepared by dissolving the dihydrochloride of Compound No. 1 in Sorensen buffer solution (pH 7.0) to a concentration of 100 μg/ml is placed in a 50-ml centrifuagl tube, followed by addition of 10 ml of n-octanol. After shaking at 25° C. for 10 minutes, the mixture is centrifuged and the concentration of the cephalosporin compound in the aqueous layer is determined by high performance liquid chromatography [column: μ-Bondapak C-18 produced by Waters Associates, Canada; eluent: 0.05 M ammonium sulfate solution+acetonitrile+acetic acid (400:200:1 v/v)]. A value of 0.45 μg/ml is obtained. From this value, the oil/water partition coefficient is calculated as follows: [formula]

Structures can show the parent of a compound that is named as a salt.

Consider 1 molecule from patent publication US4616008A, “Antibacterial solid composition for oral administration” (Takeda Chemical Industries, Ltd., priority 1984, dated 1986).

For `CC(OC(=O)OC1CCCCC1)OC(=O)C1=C(CSc2nnnn2CCN(C)C)CS[C@@H]2[C@H](NC(=O)Cc3csc(N)n3)C(=O)N12` (stereo partly drawn) [Compound No. 1, 1-(cyclohexyloxycarbonyloxy)ethyl 7β-[2-(2-aminothiazol-4-yl)acetamido]-3-[[[1-(2-dimethylaminoethyl-1H-tetrazol-5-yl]thio]methyl]ceph-3-em-4-carboxylatedihydrochloride], the “concentration of the cephalosporin compound in the aqueous layer” value (initial 100 μg/ml in Sorensen buffer pH 7.0, equal volume n-octanol, 25° C., 10 minutes shaking) was determined as 450 ng/mL. Where the note is “n-octanol/Sorensen buffer pH 7.0, 25° C., calculated from aqueous concentration”, the logD is 2.34.

As a reminder, the logD is the decadic logarithm of the distribution of all forms, ionised or not, between an organic phase and buffer at a given pH.
